Measured values: publication PMC12198282, “Application of a high-density microelectrode array assay using a 3D human iPSC-derived brain microphysiological system model for in vitro neurotoxicity screening of environmental compounds” (Archives of Toxicology, 2025)
“Also recorded” adds a separate entry of the source. Read-outs that look alike come from different tables or passages of the source.

Tests used:
BrainSpheres = experiment: Cytotoxicity evaluation, resazurin assay (BrainSphere.Cyto); format: cell-based, human; conditions: for AC50: Homo sapiens, 312 h, read-out: ac50 BrainSphere.Cyto; on hitc BrainSphere.Cyto: key: 1 (active); 0 (inactive)
Method: For the resazurin assay, BrainSpheres were cultured for 7 weeks in non-treated 6-well plates under gyratory shaking. Subsequently, the cells were exposed in the same manner as the HD-MEA plates. This assay was used to determine cell viability after exposure for 13 days to the different compounds. After exposure, resazurin diluted in PBS was added directly to the 6-well plates to a final concentration of 0.1 mg/ml. The plates were then put in an incubator for 3 h at 37 °C, 5% CO2. Then, 100 µl of the media was collected and transferred in a 96-well plate for fluorescence analysis, which was done at ex:530 nm/em:590 nm in a multi-well fluorometric reader CytoFluor series 4000 (PerSeptive Biosystems, Inc).
Ten metrics were measured to evaluate changes in neural activity in the BrainSphere MEA assay (Table 3). Considering the complexity of the data which includes seven recording days for each single ROI in a well, an area under the curve (AUC) metric was used to reduce activity across time as described in previous publications (Brown et al. [2016]; Frank et al. [2017b]; Shafer et al. [2019]). […] For concentration–response modeling, the mean AUC values across all the BrainSpheres per well (technical replicates) was computed for each endpoint, such that each concentration included biological replicates from at least three separate wells on three separate plates, representing each individual experiment. The mean AUC values were used for concentration–response modeling using the R package tcplfit2 (version 0.1.6) (Sheffield et al. [2022]). Data were normalized as a percent of vehicle control wells by plate using the equation: resp.pc=rval-bval/bval×100 where resp.pc is the percent of control value, rval is the response value, and bval is the baseline value (defined as the mean of the vehicle control and the lowest tested concentration). […] The activity cutoff was defined as 3 times the median absolute deviation (bmad) of baseline values. A curve was defined as ‘active’ if the continuous hit call was ≥ 0.9. See Supplemental Table 1 for the bmad, activity cutoff threshold, SD, and benchmark response for each endpoint in the BrainSphere MEA. Potency was defined as the concentration at 50% maximal activity (AC50 log10 µM).

2D rat cortical cultures = conditions: cited from earlier work; for AC50: rNFA mc5; for hitc CCTE_Shafer_MEA_dev_active_electrodes_number / hitc CCTE_Shafer_MEA_dev_burst_duration_mean / hitc CCTE_Shafer_MEA_dev_burst_rate / hitc CCTE_Shafer_MEA_dev_bursting_electrodes_number / hitc CCTE_Shafer_MEA_dev_correlation_coefficient_mean / hitc CCTE_Shafer_MEA_dev_firing_rate_mean / hitc CCTE_Shafer_MEA_dev_inter_network_spike_interval_mean / hitc CCTE_Shafer_MEA_dev_interburst_interval_mean / hitc CCTE_Shafer_MEA_dev_mutual_information_norm / hitc CCTE_Shafer_MEA_dev_network_spike_duration_std / hitc CCTE_Shafer_MEA_dev_network_spike_number / hitc CCTE_Shafer_MEA_dev_network_spike_peak / hitc CCTE_Shafer_MEA_dev_per_burst_interspike_interval / hitc CCTE_Shafer_MEA_dev_per_burst_spike_percent / hitc CCTE_Shafer_MEA_dev_per_network_spike_spike_number_mean / hitc CCTE_Shafer_MEA_dev_per_network_spike_spike_percent / hitc CCTE_Shafer_MEA_dev_spike_duration_mean: rNFA mc5 hit call; for hitc CCTE_Shafer_MEA_dev_burst_duration_mean: aenm burst_duration_mean; for hitc CCTE_Shafer_MEA_dev_burst_rate: aenm burst_rate; for hitc CCTE_Shafer_MEA_dev_correlation_coefficient_mean: aenm correlation_coefficient_mean; for hitc CCTE_Shafer_MEA_dev_firing_rate_mean: aenm firing_rate_mean; for hitc CCTE_Shafer_MEA_dev_inter_network_spike_interval_mean: aenm inter_network_spike_interval_mean; for hitc CCTE_Shafer_MEA_dev_interburst_interval_mean: aenm interburst_interval_mean; for hitc CCTE_Shafer_MEA_dev_mutual_information_norm: aenm mutual_information_norm; for hitc CCTE_Shafer_MEA_dev_network_spike_duration_std: aenm network_spike_duration_std; for hitc CCTE_Shafer_MEA_dev_network_spike_number: aenm network_spike_number; for hitc CCTE_Shafer_MEA_dev_network_spike_peak: aenm network_spike_peak; for hitc CCTE_Shafer_MEA_dev_per_burst_interspike_interval: aenm per_burst_interspike_interval; for hitc CCTE_Shafer_MEA_dev_per_burst_spike_percent: aenm per_burst_spike_percent; for hitc CCTE_Shafer_MEA_dev_per_network_spike_spike_number_mean: aenm per_network_spike_spike_number_mean; for hitc CCTE_Shafer_MEA_dev_per_network_spike_spike_percent: aenm per_network_spike_spike_percent; for hitc CCTE_Shafer_MEA_dev_spike_duration_mean: aenm spike_duration_mean; on hitc CCTE Shafer MEA dev active electrodes number: key: 1 (active); 0 (inactive); on hitc CCTE Shafer MEA dev burst duration mean: key: 1 (active); 0 (inactive); on hitc CCTE Shafer MEA dev burst rate: key: 1 (active); 0 (inactive); on hitc CCTE Shafer MEA dev bursting electrodes number: key: 1 (active); 0 (inactive); on hitc CCTE Shafer MEA dev correlation coefficient mean: key: 1 (active); 0 (inactive); on hitc CCTE Shafer MEA dev firing rate mean: key: 1 (active); 0 (inactive); on hitc CCTE Shafer MEA dev inter network spike interval mean: key: 1 (active); 0 (inactive); on hitc CCTE Shafer MEA dev interburst interval mean: key: 1 (active); 0 (inactive); on hitc CCTE Shafer MEA dev mutual information norm: key: 1 (active); 0 (inactive); on hitc CCTE Shafer MEA dev network spike duration std: key: 1 (active); 0 (inactive); on hitc CCTE Shafer MEA dev network spike number: key: 1 (active); 0 (inactive); on hitc CCTE Shafer MEA dev network spike peak: key: 1 (active); 0 (inactive); on hitc CCTE Shafer MEA dev per burst interspike interval: key: 1 (active); 0 (inactive); on hitc CCTE Shafer MEA dev per burst spike percent: key: 1 (active); 0 (inactive); on hitc CCTE Shafer MEA dev per network spike spike number mean: key: 1 (active); 0 (inactive); on hitc CCTE Shafer MEA dev per network spike spike percent: key: 1 (active); 0 (inactive); on hitc CCTE Shafer MEA dev spike duration mean: key: 1 (active); 0 (inactive)
[1] = resazurin, day 13, Supplement 3 prints it also for curves with hit call 0
[2] = resazurin, after 13 days of exposure
[3] = tcplfit2 BMD at benchmark response (1.349*SD of baseline controls)
[4] = aenm bursting_electrodes_number

| Structure (SMILES) | AC50 (BrainSpheres; [1]) [µM] | Cytotoxicity hit (BrainSpheres; [2]) | hitc BrainSphere.Cyto (BrainSpheres; resazurin, day 13, tcplfit2) | BMD BrainSphere.Cyto (BrainSpheres; [3]) [µM] | hitc CCTE_Shafer_MEA_dev_active_electrodes_number (2D rat cortical cultures; aenm active_electrodes_number) | hitc CCTE_Shafer_MEA_dev_burst_duration_mean (2D rat cortical cultures) | hitc CCTE_Shafer_MEA_dev_burst_rate (2D rat cortical cultures) | hitc CCTE_Shafer_MEA_dev_bursting_electrodes_number (2D rat cortical cultures; [4]) | hitc CCTE_Shafer_MEA_dev_correlation_coefficient_mean (2D rat cortical cultures) | hitc CCTE_Shafer_MEA_dev_firing_rate_mean (2D rat cortical cultures) | hitc CCTE_Shafer_MEA_dev_inter_network_spike_interval_mean (2D rat cortical cultures) | hitc CCTE_Shafer_MEA_dev_interburst_interval_mean (2D rat cortical cultures) | hitc CCTE_Shafer_MEA_dev_mutual_information_norm (2D rat cortical cultures) | hitc CCTE_Shafer_MEA_dev_network_spike_duration_std (2D rat cortical cultures) | hitc CCTE_Shafer_MEA_dev_network_spike_number (2D rat cortical cultures) | hitc CCTE_Shafer_MEA_dev_network_spike_peak (2D rat cortical cultures) | hitc CCTE_Shafer_MEA_dev_per_burst_interspike_interval (2D rat cortical cultures) | hitc CCTE_Shafer_MEA_dev_per_burst_spike_percent (2D rat cortical cultures) | hitc CCTE_Shafer_MEA_dev_per_network_spike_spike_number_mean (2D rat cortical cultures) | hitc CCTE_Shafer_MEA_dev_per_network_spike_spike_percent (2D rat cortical cultures) | also measured |
| --- | --- | --- | --- | --- | --- | --- | --- | --- | --- | --- | --- | --- | --- | --- | --- | --- | --- | --- | --- | --- | --- |
| CC(C)(c1ccc(O)cc1)c1ccc(O)cc1 [Bisphenol A] | 6.8 | 0 | 0 | 680 | 1 | 0 | 0 | 1 | 0 | 0 | 0 | 0 | 0 | 0 | 0 | 0 | 0 | 0 | 0 | 0 | ACC BrainSphere.Cyto (BrainSpheres; tcplfit2 output ACC, activity cutoff in Supplemental Table 1): 11523 µM; Number of active endpoints in the rNFA (2D rat cortical cultures; of 17 MEA endpoints, ref Brown et al. [2016], Carstens et al. [2022], Frank et al. [2017b], Shafer et al. [2019], ToxCast invitrodb (v4.2)): two; AC50 (2D rat cortical cultures; aenm active_electrodes_number, read-out: ac50 CCTE_Shafer_MEA_dev_active_electrodes_number): 15 µM; AC50 (2D rat cortical cultures; aenm bursting_electrodes_number, read-out: ac50 CCTE_Shafer_MEA_dev_bursting_electrodes_number): 9.89 µM; hitc CCTE_Shafer_MEA_dev_spike_duration_mean (2D rat cortical cultures): 0 |
| CC(=O)Nc1ccc(O)cc1 [Acetaminophen] | – | – | – | – | 0 | 0 | 0 | 0 | 0 | 0 | 0 | 0 | 0 | 0 | 0 | 0 | 0 | 0 | 0 | 0 | AC50 (BrainSpheres): 45 µM; BMD BrainSphere.Cyto (BrainSpheres; human): 174 µM; Cytotoxicity hit (BrainSpheres; human): 0; hitc BrainSphere.Cyto (BrainSpheres; human): 0; hitc CCTE_Shafer_MEA_dev_spike_duration_mean (2D rat cortical cultures): 0; Bioactivity in the rNFA (in words) (2D rat cortical cultures; ref Brown et al. [2016], Carstens et al. [2022], Frank et al. [2017b], Shafer et al. [2019], ToxCast invitrodb (v4.2)): inactivity across all metrics in both models; Bioactivity in the rNFA (in words) (2D rat cortical cultures; ref Brown et al. [2016], Carstens et al. [2022], Frank et al. [2017b], Shafer et al. [2019], ToxCast invitrodb (v4.2), listed as acetaminophen): inactive in both assays; also recorded: did not |
| ClC1=C(Cl)[C@]2(Cl)[C@@H]3[C@@H]4C[C@@H]([C@H]5O[C@@H]45)[C@@H]3[C@@]1(Cl)C2(Cl)Cl [Dieldrin] | 45 | 0 | 0 | 509 | – | – | – | – | – | – | – | – | – | – | – | – | – | – | – | – | – |
